Data: patent US7442833B2, “Triphenylethylene compounds as selective estrogen receptor modulators” (SmithKline Beecham Corporation, priority 2003, dated 2008)
Values after ≈ are worked out from the molar mass of the structure shown. Values joined by “and” are separate entries in the source; they are usually repeats but may differ in a detail not shown here. Equal values may be shown once. Where a name gives a salt, the structure may show the parent alone.

Legend:
[1] = target: estrogen receptor subtype alpha (Homo sapiens, UniProt P03372); conditions: relative to estradiol; reported by Weatherman, Chem. and Biol. (2001) 8, 427-436; cited from earlier work
estrogen receptor subtype alpha, sequence (P03372 whole entry): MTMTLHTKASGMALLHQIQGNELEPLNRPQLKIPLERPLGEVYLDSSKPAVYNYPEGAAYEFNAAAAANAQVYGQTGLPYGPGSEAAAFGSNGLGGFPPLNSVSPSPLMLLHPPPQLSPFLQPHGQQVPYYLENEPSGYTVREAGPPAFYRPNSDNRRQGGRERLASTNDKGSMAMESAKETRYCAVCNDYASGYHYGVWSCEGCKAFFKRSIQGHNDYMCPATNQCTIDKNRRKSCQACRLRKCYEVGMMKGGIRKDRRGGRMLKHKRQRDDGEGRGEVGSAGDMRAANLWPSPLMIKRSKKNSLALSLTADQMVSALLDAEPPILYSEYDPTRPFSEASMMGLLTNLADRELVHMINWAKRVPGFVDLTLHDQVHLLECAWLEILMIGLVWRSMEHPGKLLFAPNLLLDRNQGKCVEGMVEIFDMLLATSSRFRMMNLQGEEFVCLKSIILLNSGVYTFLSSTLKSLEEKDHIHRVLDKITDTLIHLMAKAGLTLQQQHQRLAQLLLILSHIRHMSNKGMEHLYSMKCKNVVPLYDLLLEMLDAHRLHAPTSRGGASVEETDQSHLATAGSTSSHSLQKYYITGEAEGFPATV

[2] = Equilibrium solubility in fasted state simulated intestinal fluid (SIF); type: physicochemical; conditions: fassif, thermodynamic from solid, pH = 6.8
From the text: Traditionally, prodrugs have often been used to increase the bioavailability of a drug via improvement of prodrug solubility by attaching a water-soluble moiety (the “progroup”) to a poorly water soluble parent drug (D. Fleisher, Adv. Drug Del. Rev. (1996) 19, 115-130, incorporated herein by reference).

[3] = target: estrogen receptor subtype beta (Homo sapiens, UniProt Q92731); conditions: relative to estradiol; reported by Weatherman, Chem. and Biol. (2001) 8, 427-436; cited from earlier work
estrogen receptor subtype beta, sequence (Q92731 whole entry): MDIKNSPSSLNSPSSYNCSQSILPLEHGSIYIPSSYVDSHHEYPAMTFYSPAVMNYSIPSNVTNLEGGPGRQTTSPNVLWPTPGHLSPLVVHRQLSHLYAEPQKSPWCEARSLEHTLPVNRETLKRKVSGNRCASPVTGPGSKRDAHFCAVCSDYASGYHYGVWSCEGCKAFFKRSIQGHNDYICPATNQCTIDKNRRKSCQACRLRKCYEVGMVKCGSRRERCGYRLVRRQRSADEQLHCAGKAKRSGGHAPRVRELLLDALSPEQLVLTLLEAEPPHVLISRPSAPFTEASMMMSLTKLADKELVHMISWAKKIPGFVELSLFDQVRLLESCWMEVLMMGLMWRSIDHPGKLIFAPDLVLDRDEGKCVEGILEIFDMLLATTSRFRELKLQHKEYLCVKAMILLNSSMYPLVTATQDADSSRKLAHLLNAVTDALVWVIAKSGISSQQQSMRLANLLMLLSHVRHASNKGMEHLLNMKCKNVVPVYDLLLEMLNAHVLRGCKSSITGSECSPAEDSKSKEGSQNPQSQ

[4] = Rat oral pharmacokinetics: bioavailability of compound 1; type: in vivo, female CD (Charles River Sprague Dawley) rats; conditions: for Bioavailability of 1 in Rat (% F): Table I; for Bioavailability of 1 in Rat: Table II
Description: In order to study the pharmacokinetic behavior of the prodrugs of this invention, a single oral dose of a series of prodrugs as well as compound 1 was administered to female CD (Charles River Sprague Dawley) rats. Rats received each compound by oral gavage at a dose of 10 mg/kg. […]

[5] = single oral gavage 10 mg/kg, suspension in aqueous 0.5% HPMC and 0.1% polysorbate 80 (Tween 80)
[6] = oral, suspension in aqueous 0.5% HPMC and 0.1% polysorbate 80 (Tween 80)

| Structure (SMILES) | melting point | Bioavailability of 1 in Rat (% F) [4, 5] | other results |
| --- | --- | --- | --- |
| CC/C(=C(\c1ccc(/C=C/C(=O)O)cc1)c1ccc(OC(=O)CN(C)C)cc1)c1ccccc1 (as salt: salt) [Compound 23, (2E)-3-[4-((1Z)-1-{4-[(N,N-dimethylglycyl)oxy]phenyl}-2-phenylbut-1-enyl)phenyl]prop-2-enoic acid] | 206 to 208 °C |  |  |
| CC/C(=C(\c1ccc(/C=C/C(=O)O)cc1)c1ccc(OC(=O)c2cccs2)cc1)c1ccccc1 (as salt: salt) [Compound 25, (2E)-3-[4-((1Z)-2-phenyl-1-{4-[(thien-2-ylcarbonyl)oxy]phenyl}but-1-enyl)phenyl]prop-2-enoic acid] | 175 to 176 °C |  |  |
| CC/C(=C(\c1ccc(/C=C/C(=O)O)cc1)c1ccc(OC(=O)CCC(F)(F)F)cc1)c1ccccc1 (as salt: salt) [Compound 27, (2E)-3-[4-((1Z)-2-phenyl-1-{4-[(4,4,4-trifluorobutanoyl)oxy]phenyl}but-1-enyl)phenyl]prop-2-enoic acid] | 162 to 163 °C |  |  |
| CC/C(=C(/c1ccc(O)cc1)c1ccc(/C=C/C(=O)O)cc1)c1ccccc1 [Compound 1, (2E)-3-{4-[(1Z)-1-(4-Hydroxyphenyl)-2-phenylbut-1-enyl]phenyl}prop-2-enoic acid] |  | 5.7 % F | binding affinity to estrogen receptor subtype alpha, % that of estradiol [1]: 2%; solubility thermodynamic [2]: 23 µg/mL (≈ 62.1 µM); binding affinity to estrogen receptor subtype beta, % that of estradiol [3]: 1%; Bioavailability of 1 in Rat (% F) ([4]; oral, solution in aqueous 20% hydroxypropoylcyclodextrin): 29.0 % F; Bioavailability of 1 in Rat [4, 6]: 5.7 % F |
| CCC(=O)Oc1ccc(/C(=C(/CC)c2ccccc2)c2ccc(/C=C/C(=O)O)cc2)cc1 [Compound 7, (2E)-3-(4-{(1Z)-2-phenyl-1-[4-(propionyloxy)phenyl]but-1-enyl}phenyl)prop-2-enoic acid] | 155 to 157 °C and 158 to 160 °C | 86.6 % F | solubility thermodynamic [2]: 61 µg/mL (≈ 143 µM); Bioavailability of 1 in Rat [4, 6]: 86.6 % F |
| CC/C(=C(\c1ccc(/C=C/C(=O)O)cc1)c1ccc(OC(=O)c2ccccc2)cc1)c1ccccc1 [Compound 18, (2E)-3-(4-{(1Z)-1-[4-(benzoyloxy)phenyl]-2-phenylbut-1-enyl}phenyl)prop-2-enoic acid] |  | 12.3 % F |  |
| CC/C(=C(\c1ccc(/C=C/C(=O)O)cc1)c1ccc(OC(C)=O)cc1)c1ccccc1 [Compound 20, (2E)-3-(4-{(1Z)-1-[4-(acetyloxy)phenyl]-2-phenylbut-1-enyl}phenyl)prop-2-enoic acid] |  | 13.5 % F | solubility thermodynamic [2]: 129 µg/mL (≈ 313 µM); Bioavailability of 1 in Rat [4, 6]: 13.5 % F |
| CCCC(=O)Oc1ccc(/C(=C(/CC)c2ccccc2)c2ccc(/C=C/C(=O)O)cc2)cc1 [Compound 21, (2E)-3-(4-{(1Z)-1-[4-(butyryloxy)phenyl]-2-phenylbut-1-enyl}phenyl)prop-2-enoic acid] |  | 18.2 % F | solubility thermodynamic [2]: 21 µg/mL (≈ 47.7 µM); Bioavailability of 1 in Rat [4, 6]: 18.2 % F |
| CC/C(=C(\c1ccc(/C=C/C(=O)O)cc1)c1ccc(OC(=O)c2ccco2)cc1)c1ccccc1 [Compound 22, (2E)-3-(4-{(1Z)-1-[4-(2-Furoyloxy)phenyl]-2-phenyl-1-butenyl}phenyl)-2-propenoic acid] | 170 to 172 °C | 16.9 % F |  |
| CC/C(=C(\c1ccc(/C=C/C(=O)O)cc1)c1ccc(OC(=O)CN(C)C)cc1)c1ccccc1 [Compound 23, (2E)-3-[4-((1Z)-1-{4-[(N,N-dimethylglycyl)oxy]phenyl}-2-phenylbut-1-enyl)phenyl]prop-2-enoic acid] |  | 38.3 % F | solubility thermodynamic [2]: 15 µg/mL (≈ 32.9 µM); Bioavailability of 1 in Rat [4, 6]: 38.3 % F |
| CC/C(=C(\c1ccc(/C=C/C(=O)O)cc1)c1ccc(OC(=O)c2ccno2)cc1)c1ccccc1 [Compound 24, (2E)-3-[4-((1Z)-1-{4-[(5-Isoxazolylcarbonyl)oxy]phenyl}-2-phenyl-1-butenyl)phenyl]-2-propenoic acid] | 141 to 142 °C | 43.2 % F |  |
| CC/C(=C(\c1ccc(/C=C/C(=O)O)cc1)c1ccc(OC(=O)c2cccs2)cc1)c1ccccc1 [Compound 25, (2E)-3-[4-((1Z)-2-phenyl-1-{4-[(thien-2-ylcarbonyl)oxy]phenyl}but-1-enyl)phenyl]prop-2-enoic acid] |  | 50.9 % F |  |
| CC/C(=C(\c1ccc(/C=C/C(=O)O)cc1)c1ccc(OC(=O)CCOC)cc1)c1ccccc1 [Compound 26] | 190 to 191 °C | 52.4 % F |  |
| CC/C(=C(\c1ccc(/C=C/C(=O)O)cc1)c1ccc(OP(=O)(O)O)cc1)c1ccccc1 [Compound 35, (2E)-3-(4-{(1Z)-2-Phenyl-1-[4-(phosphonooxy)phenyl]-1-butenyl}phenyl)-2-propenoic acid] | 181 to 183 °C | 37.0 % F | solubility thermodynamic [2]: > 1000 µg/mL; Bioavailability of 1 in Rat [4, 6]: 37.0 % F |

Now from value to compound, other results behind:

| melting point | Bioavailability of 1 in Rat (% F) [4, 5] | Structure (SMILES) | other results |
| --- | --- | --- | --- |
|  | 28.9 % F | CC/C(=C(\c1ccc(/C=C/C(=O)O)cc1)c1ccc(OC(=O)CCC(F)(F)F)cc1)c1ccccc1 [Compound 27, (2E)-3-[4-((1Z)-2-phenyl-1-{4-[(4,4,4-trifluorobutanoyl)oxy]phenyl}but-1-enyl)phenyl]prop-2-enoic acid] |  |
|  | 3.5 % F | CC/C(=C(\c1ccc(/C=C/C(=O)O)cc1)c1ccc(OC(=O)C(C)(C)C)cc1)c1ccccc1 [Compound 28, (2E)-3-[4-((1Z)-1-{4-[(2,2-dimethylpropanoyl)oxy]phenyl}-2-phenylbut-1-enyl)phenyl]prop-2-enoic acid] |  |
|  | 3.3 % F | CC/C(=C(\c1ccc(/C=C/C(=O)O)cc1)c1ccc(OC(=O)C2CCCCC2)cc1)c1ccccc1 [Compound 29, (2E)-3-[4-((1Z)-1-{4-[(cyclohexylcarbonyl)oxy]phenyl}-2-phenylbut-1-enyl)phenyl]prop-2-enoic acid] |  |
|  | 21.3 % F | CC/C(=C(\c1ccc(/C=C/C(=O)O)cc1)c1ccc(OC(=O)CN2CCOCC2)cc1)c1ccccc1 [Compound 31, (2E)-3-[4-((1Z)-1-{4-[(morpholin-4-ylacetyl)oxy]phenyl}-2-phenylbut-1-enyl)phenyl]prop-2-enoic acid] |  |
|  | 13.9 % F | CC/C(=C(\c1ccc(/C=C/C(=O)O)cc1)c1ccc(OC(=O)CN2CCCCC2)cc1)c1ccccc1 [Compound 33, (2E)-3-[4-((1Z)-2-phenyl-1-{4-[(piperidin-1-ylacetyl)oxy]phenyl}but-1-enyl)phenyl]prop-2-enoic acid] |  |
|  | 13.4 % F | CC/C(=C(\c1ccc(/C=C/C(=O)O)cc1)c1ccc(OC(=O)CN2CCN(C)CC2)cc1)c1ccccc1 [Compound 34, (2E)-3-{4-[(1Z)-1-(4-{[(4-methylpiperazin-1-yl)acetyl]oxy}phenyl)-2-phenylbut-1-enyl]phenyl}prop-2-enoic acid] |  |
| 135 to 136 °C | 43.2 % F | CCOC(=O)Oc1ccc(/C(=C(/CC)c2ccccc2)c2ccc(/C=C/C(=O)O)cc2)cc1 [Compound 37, (2E)-3-[4-((1Z)-1-{4-[(Ethoxycarbonyl)oxy]phenyl}-2-phenyl-1-butenyl)phenyl]-2-propenoic acid] |  |
| 140 to 142 °C | 21.9 % F | CC/C(=C(\c1ccc(/C=C/C(=O)O)cc1)c1ccc(OC(=O)OC)cc1)c1ccccc1 [Compound 40, (2E)-3-[4-((1Z)-1-{4-[(Methoxycarbonyl)oxy]phenyl}-2-phenyl-1-butenyl)phenyl]-2-propenoic acid] |  |
